Reference: ChEMBL document CHEMBL3988442, “University of Dundee, Small-Polar-MMV Screening Library” (2021)

Experiments:
[1] = microbe, parasite or virus in culture; details: Mycobacterium tuberculosis, 96 h, read-out: pIC50 (converted)
[2] = microbe, parasite or virus in culture; details: Mycobacterium tuberculosis, 72 h, read-out: pIC50 (converted)

Row | SMILES | IC50 [1] | IC50 [2]
1 | O=C(CSc1ncccc1Br)N1CCCC1 | 70.3 µM | 5.62 µM
2 | Nc1cc(-c2ccc(I)cc2)nn1CCO | > 501 µM | > 501 µM
3 | CN(C)c1ncccc1CNS(=O)(=O)c1ccccc1 | > 501 µM | > 501 µM
4 | COc1cc(OC)c(NC(=O)Cn2ccnc2)cc1Cl | 264 µM | 243 µM
5 | Cc1nc(-c2cccc(C(=O)O)c2)cc(C2CCN(C(C)C)C2)n1 (stereo not given) | > 50.1 µM | > 50.1 µM
6 | COc1cc(OC)cc(C2(F)CCNCC2)c1 | 287 µM | 226 µM
7 | CSCCNC(=O)c1coc(COc2ccc3sc(C)nc3c2)n1 | > 50.1 µM | > 50.1 µM
8 | O=C(NCC1CC1)c1noc(-c2ccccc2F)n1 | 99.7 µM | 16.4 µM
9 | CCC(C)NC(=O)Cc1ccc2c(c1)OCCO2 (stereo not given) | > 501 µM | > 501 µM
10 | CC(C)(C)OC(=O)c1ncccc1N | 265 µM | > 501 µM
11 | c1csc(CCNc2nc(-c3ccncc3)nc3c2CCNCC3)c1 | 21.7 µM | 46.2 µM
12 | Cc1cccc(NC(=O)NCc2c(C)noc2C)n1 | > 501 µM | 238 µM
13 | N#Cc1nc(-c2ccccc2)oc1NCCCO | > 501 µM | 243 µM
14 | Cc1nc(N2CCCC2)nc2c1CCN(Cc1ccco1)CC2 | 4.23 µM | 4.72 µM
15 | CSc1nnc(CN(C)CCO)s1 | 56.6 µM | > 501 µM
16 | Cn1cc(NC(=O)c2ccc(Br)s2)cc1C(N)=O | 285 µM | 341 µM
17 | O=C(c1cnc(C2CC2)nc1)N1CCCC(c2nccs2)C1 (stereo not given) | 6.43 µM | 8.4 µM
18 | CC(NCc1ccc(OCC(N)=O)cc1)c1ccc(Cl)cc1Cl (stereo not given) | 18.8 µM | 49 µM
19 | Cc1nc(C2CCCN(C(=O)c3cc4c(s3)CCCC4)C2)no1 (stereo not given) | 11.7 µM | 40.8 µM
20 | O=C(CCSc1ccc(F)cc1)N1CCN(c2cnccn2)CC1 | > 50.1 µM | > 50.1 µM
21 | Cc1ccncc1NC1CS(=O)(=O)c2ccccc21 (stereo not given) | 43.2 µM | 27.1 µM
22 | N[C@@H]1C[C@H]1c1c(F)cccc1F | > 501 µM | > 501 µM
23 | Cc1cncc(NCc2ccccc2N2CCOCC2)c1 | 6.18 µM | 6.63 µM
24 | NCc1ccnc(OCC(F)(F)F)c1 | 88.7 µM | 50 µM
25 | CCOC(=O)C1CCCN(C(=O)c2onc(C)c2Cl)C1 (stereo not given) | 303 µM | 232 µM
26 | O=C(COc1ncccn1)Nc1ccc(F)cc1F | > 501 µM | > 501 µM
27 | CCc1nnc2n1CCN(C(=O)CN(CC)CC)C2 | > 50.1 µM | > 50.1 µM

Row | SMILES | IC50 [1] | IC50 [2]
28 | CCC(C)C(=O)NCCNc1ccc(C(F)(F)F)cn1 (stereo not given) | 57.7 µM | 51.5 µM
29 | Clc1ccc(-c2noc(CN3CCCNCC3)n2)cc1 | 216 µM | 213 µM
30 | NC(=O)c1ccccc1NC(=O)CSc1ccccn1 | > 501 µM | 116 µM
31 | CCOC(=O)Cn1nnc2ccccc2c1=O | > 501 µM | > 501 µM
32 | Cc1cnn(C2CN(c3ccccc3S(=O)(=O)C(F)(F)F)C2)c1 | 29.4 µM | 10.2 µM
33 | CC(=O)Nc1ccc(N2CCCCC2)nc1 | 95.3 µM | 97.2 µM
34 | CN(C)C(CN)C1CCCCC1 (stereo not given) | 252 µM | 279 µM
35 | O=C1CN(CC(=O)N2CCCCCCC2)CCN1 | > 501 µM | > 501 µM
36 | CCc1ccc2c(c1)[C@@H](N)CCO2 | > 501 µM | > 501 µM
37 | COc1ccnc(NCc2ccc(CO)c(F)c2)n1 | > 501 µM | > 501 µM
38 | CCCn1c(O)nnc1SCc1cccc(OC)n1 | 436 µM | 256 µM
39 | CC(=O)c1c(F)cccc1N1CCOCC1 | > 501 µM | > 501 µM
40 | CC(C)CCN1Cc2c(C(=O)O)ncn2-c2ccccc2S1(=O)=O | > 50.1 µM | > 50.1 µM
41 | Cc1cnn(CCNCCCOc2ccc3c(c2)OCO3)c1 | 13.6 µM | 13.9 µM
42 | CC(=O)NCC(=O)N1CCc2nc(-c3ccccc3)nc(C)c2CC1 | > 50.1 µM | > 50.1 µM
43 | Cc1cccc(C[S+]([O-])CC(=O)NCC2CC2)c1 (stereo not given) | > 501 µM | > 501 µM
44 | Cc1ncc(CN(C)CC(O)COCc2ccco2)s1 (stereo not given) | > 501 µM | > 501 µM
45 | Fc1cccc(-c2noc(C3CCCN3)n2)c1 (stereo not given) | 286 µM | 271 µM
46 | Fc1ccccc1OC1CCN(CCn2cc3ccccc3n2)CC1 | 47.9 µM | > 50.1 µM
47 | CCN(C)C(=O)Nc1ccc(C(=O)OC)c(F)c1 | > 501 µM | > 501 µM
48 | COc1ccc(CN(C(=O)C2CCCS2)c2ccncc2)cc1 (stereo not given) | > 50.1 µM | > 50.1 µM
49 | COc1cc(NC(=O)NCc2nncn2C)ccc1Br | > 501 µM | 218 µM
50 | CC1CCN(C(=O)c2cnn(-c3cccnc3)c2)CC1 | 67.4 µM | 307 µM
51 | CCNc1ncc(C(=O)N2CCC(c3ccccc3C(=O)O)C2)cn1 (stereo not given) | > 50.1 µM | > 50.1 µM
52 | CCSc1nnc(-c2ccc[nH]2)o1 | 188 µM | 169 µM
53 | CC(Sc1nnc[nH]1)C(=O)Nc1ccc(C#N)cc1 (stereo not given) | > 501 µM | > 501 µM
54 | CNC(=O)[C@@H](C)Nc1ccc(C(F)(F)F)cn1 | > 501 µM | > 501 µM

Row | SMILES | IC50 [1] | IC50 [2]
55 | COc1ccc(F)cc1C(=O)OCC(=O)NC1CC1 | 212 µM | 105 µM
56 | NCc1nc(-c2ccc(Cl)cc2)c[nH]1 | 264 µM | 128 µM
57 | Cc1ccc(CNCCOc2ccccn2)o1 | 98.7 µM | > 501 µM
58 | CN(Cc1cccc(F)c1)C(=O)c1cnccn1 | > 501 µM | > 501 µM
59 | NCc1cccc(OCc2ccccn2)c1 | > 501 µM | 187 µM
60 | Cc1cc(C)c(CN2CCOC(CN)C2)cc1C (stereo not given) | 259 µM | 183 µM
61 | CN(Cc1ccsc1)C(=O)CNC(=O)c1ccc(Br)o1 | 164 µM | 138 µM
62 | CC(C(=O)NCc1cccs1)S(=O)(=O)C1CCCC1 (stereo not given) | > 501 µM | 164 µM
63 | COc1cccc(-c2ncc(CN3CC[C@H]4CC[C@@H](C3)N4)s2)c1 | 24.5 µM | 41.2 µM
64 | CC1=C[C@@H](CN2CCCC2)[C@H](C(C)C)C[C@H]1Cc1nnc(C)o1 | > 50.1 µM | > 50.1 µM
65 | CC(=O)N1CCC[C@H]1C(=O)NCCc1csc(C)n1 | > 501 µM | > 501 µM
66 | COc1cc(Oc2ccc(C(F)(F)F)cn2)ccc1CN1CCCC1 | 16.6 µM | 13.9 µM
67 | Cc1ccc(CN2CCN(C(=O)c3ccc(Br)o3)CC2)cc1 | 37.2 µM | 30.4 µM
68 | CS(=O)(=O)NC[C@H]1OC[C@@H]2CCN(CCc3ccccc3)C[C@@H]21 | > 50.1 µM | > 50.1 µM
69 | O=C(CC1COc2ccccc2O1)N1CCOCC1 (stereo not given) | 64 µM | 74.9 µM
70 | O=C(c1ccc(NCc2cccc(F)c2)cc1)N1CCCC1 | > 50.1 µM | > 50.1 µM
71 | Cc1nnsc1CN1C[C@H]2CC[C@@H]1CN(Cc1ccccc1)C2 | 42.5 µM | 13.8 µM
72 | CC(N)C(=O)N1CCC(Oc2ccccc2Cl)CC1 (stereo not given) | 227 µM | 288 µM
73 | COC[C@H]1CCCN1c1nccc(-c2cnn(-c3ccccc3C)c2)n1 | 43.3 µM | 17.8 µM
74 | NC(=O)C1CCN(C(=O)CCc2ccc(Cl)cc2Cl)C1 (stereo not given) | 284 µM | 157 µM
75 | COc1ccc(C(C)CO)cc1 (stereo not given) | > 501 µM | > 501 µM
76 | COCCN(C)S(=O)(=O)c1cc(F)c(C)cc1F | > 501 µM | 465 µM
77 | CC(C)CCOCCSc1nnnn1C | 82.3 µM | 155 µM
78 | NCCc1nc(-c2ccccn2)cs1 | 1.16 µM | 2.67 µM
79 | COc1ccc(-c2nc(CN(C)Cc3nncn3C)c(C)o2)c(C)c1C | 10.1 µM | 42.9 µM
80 | CS(=O)(=O)NCC(=O)Nc1ccc(-n2cccn2)cc1 | > 501 µM | > 501 µM
81 | FC(F)COCCn1nnc(-c2ccsc2)n1 | 56.4 µM | 255 µM

Row | SMILES | IC50 [1] | IC50 [2]
82 | CCN(C)c1ccc(CNC(=O)CCn2cc(C)cn2)cc1F | > 50.1 µM | > 50.1 µM
83 | COc1ccc(CCCC(=O)N2CCC(CN)C2)cc1 (stereo not given) | > 501 µM | 230 µM
84 | OCCC1CCN(Cc2ccccc2)C1 (stereo not given) | > 501 µM | > 501 µM
85 | COc1ccc(CCN)c(O)c1 | 435 µM | 153 µM
86 | CCc1ccccc1NC(=O)NCc1nnc(SC)n1C | > 50.1 µM | > 50.1 µM
87 | CCCC(=O)Nc1cc(C(=O)OC)cc(C(=O)OC)c1 | > 501 µM | 249 µM
88 | CSc1cncc(NCCC(=O)N2CCCC2)n1 | > 501 µM | 336 µM
89 | CC(=O)N1CCC(C(=O)c2ccc(C)cc2)CC1 | > 501 µM | 100 µM
90 | O[C@@H]1CNC[C@H](O)C1 | > 501 µM | > 501 µM
91 | COc1ccc(CCSc2nnc[nH]2)cc1 | 111 µM | 142 µM
92 | O=C(NCCC(O)C(F)(F)F)c1c(O)cc(F)cc1F (stereo not given) | 244 µM | 290 µM
93 | C=C(C)CCOC(=O)c1cc(C(N)=O)cs1 | 157 µM | 39.4 µM
94 | COc1cn(-c2ccccc2)nc1C(=O)NCC(C)C | 294 µM | 282 µM
95 | CCC(CO)(CO)NCc1csc(-c2cccs2)n1 | > 501 µM | > 501 µM
96 | CN(C)c1cc(C(=O)Nc2ccccc2C(=O)NC(C)(C)C)ccn1 | > 50.1 µM | > 50.1 µM
97 | Cc1cc(NC(=O)CN(C)Cc2ccccc2)no1 | 243 µM | 266 µM
98 | Cc1ccc(C(=O)NCC(=O)NC(C)(C)C)c(O)c1 | > 501 µM | > 501 µM
99 | COc1ccc(S(=O)(=O)Nc2cccc(CN)c2)cc1 | > 501 µM | 162 µM
100 | CNC1CCN(c2cc(OC)cc(OC)c2)C1 (stereo not given) | 225 µM | 309 µM
101 | COc1ccccc1C(C)NC(=O)Cn1cc(C)cn1 (stereo not given) | > 501 µM | 226 µM
102 | O=C(CSc1ccc(F)cc1)N1CCC1 | > 501 µM | 180 µM
103 | NCCCN1CCN(c2ccccc2F)CC1 | > 501 µM | > 501 µM
104 | CC(C)(C)C(=O)CCN1CCCCC1 | 290 µM | 204 µM
105 | O=C(NC1CCCCC1)c1ccc(CO)cc1 | 143 µM | 161 µM
